Experimental data published in PubChem BioAssay (NCI).
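Growth conditions: 96-well plates. Treatment: test compound, 48 hours, 5 concentrations. Analysis: linear interpolation between bracketing concentrations; unreached endpoints set to highest concentration. The concentration for full growth arrest is given as TGI.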

Tests used:
Experiment in all cases: DTP human tumour cell line panel, 48 h
786-0 renal = test system: 786-0 renal
A549 NSCLC = test system: A549 NSCLC
ACHN renal = test system: ACHN renal
HCC-2998 colon = test system: HCC-2998 colon
HCT-116 colon = test system: HCT-116 colon
HCT-15 colon = test system: HCT-15 colon
IGROV1 ovarian = test system: IGROV1 ovarian
KM12 colon = test system: KM12 colon
MCF7 breast = test system: MCF7 breast
MDA-N = test system: MDA-N
NCI-H460 lung = test system: NCI-H460 lung
NCI/ADR-RES ovarian = test system: NCI/ADR-RES ovarian
OVCAR-3 ovarian = test system: OVCAR-3 ovarian
SK-OV-3 ovarian = test system: SK-OV-3 ovarian
SN12C renal = test system: SN12C renal
SNB-19 CNS = test system: SNB-19 CNS
SW-620 colon = test system: SW-620 colon
T-47D breast = test system: T-47D breast
UO-31 renal = test system: UO-31 renal

| Compound | TGI (786-0 renal) [µM] | TGI (A549 NSCLC) [µM] | TGI (ACHN renal) [µM] | TGI (HCC-2998 colon) [µM] | TGI (HCT-116 colon) [µM] | TGI (HCT-15 colon) [µM] | TGI (IGROV1 ovarian) [µM] | TGI (KM12 colon) [µM] | TGI (MCF7 breast) [µM] | TGI (MDA-N) [µM] | TGI (NCI-H460 lung) [µM] | TGI (NCI/ADR-RES ovarian) [µM] | TGI (OVCAR-3 ovarian) [µM] | TGI (SK-OV-3 ovarian) [µM] | TGI (SN12C renal) [µM] | TGI (SNB-19 CNS) [µM] | TGI (SW-620 colon) [µM] | TGI (T-47D breast) [µM] | TGI (UO-31 renal) [µM] |
| --- | --- | --- | --- | --- | --- | --- | --- | --- | --- | --- | --- | --- | --- | --- | --- | --- | --- | --- | --- |
| CC1(C)CC[C@]2(C(=O)O)CC[C@]3(C)C(=CC[C@@H]4[C@@]5(C)C[C@H](O)[C@H](O)[C@@](C)(CO)C5=CC[C@]43C)[C@@H]2C1 | > 100 | > 100 | > 100 | 92.6 | > 100 | > 100 | > 100 | > 100 | > 100 | > 100 | 72.2 | > 100 | > 100 | > 100 | > 100 | > 100 | > 100 | > 100 | > 100 |
| COC(=O)c1ccc(N=NN(C)COc2ccc(C#N)cc2)cc1 | > 100 | > 100 | > 100 | > 100 | > 100 | > 100 | > 100 | > 100 | > 100 | > 100 | > 100 | > 100 | > 100 | > 100 | > 100 | > 100 | > 100 | > 100 | > 100 |
| Cn1c(=O)c2c(no[n+]2[O-])n(C)c1=O | 71.8 | > 100 | > 100 | > 100 | > 100 | > 100 | 58.7 | > 100 | > 100 | 50.7 | > 100 | 46 | > 100 | > 100 | > 100 | 64.8 | 59.9 | > 100 | 97.1 |
| COc1c2c(cc3c1C(O)N1CC[C@]34[C@H]3O[C@H]3[C@H](OC)C[C@@H]14)OCO2 (some centres undefined) | > 100 | > 100 | > 100 | > 100 | > 100 | > 100 | > 100 | > 100 | > 100 | 67.8 | > 100 | > 100 | 38.4 | 97.1 | > 100 | > 100 | > 100 | > 100 | > 100 |
| CC(=O)Nc1ccc(C(=O)NN2C(=O)C(Cl)C2c2cc(Br)ccc2O)cc1 (centres undefined) | > 100 | > 100 | > 100 | > 100 | > 100 | > 100 | > 100 | > 100 | > 100 | > 100 | > 48.5 | > 100 | > 100 | > 100 | > 100 | > 100 | > 100 | > 100 | 32.3 |
| Oc1c2cc(Br)cc1CCc1cc(Br)cc(c1O)CC2 | > 100 | > 100 | > 100 | 32.9 | 30.1 | 80.7 | > 100 | 37.5 | 46.2 | > 100 | 39.4 | 57.2 | 48.8 | 76 | > 100 | > 100 | 70.5 | > 100 | 66.6 |
